Experimental data from patent publication US11440907B1 (Merck Patent GmbH, priority 2018, dated 2022).
pIC50: −log10 of the molar value.

Tests used:
Type in all cases: cell-based
[1] = tested on: XBP1(u)-luciferase splicing reporter in HepG2 hepatoma cells; test: HepG2 XBP1 reporter assay (XBP1(u)-Luc); conditions: Homo sapiens, 6 hours after compound addition, Table 4
[2] = tested on: NCI-H929 (Multiple myeloma cells); test: Cell viability (ATPLite) in NCI-H929; conditions: Homo sapiens, 96 hours
Procedure: (§1) Cells were removed from liquid nitrogen storage, thawed and expanded in appropriate growth media. Once expanded, cells were seeded in 384-well tissue culture treated plates at 500 cells per well. After 24 hours, cells were treated for either 0 hours or treated for 96 hours with a testing compound (at the concentrations of 100 nM and 2 uM). At the end of either 0 hours or 96 hours, cell status was analyzed using ATPLite (Perkin Elmer) to assess the biological response of cells to the testing compound.

[3] = tested on: DU4475 (breast cancer cells); test: Cell viability (ATPLite) in DU4475; conditions: Homo sapiens, DU-4475, 96 hours
Procedure: as §1

Cc1cc(N2CCCOCC2c2cc3c(cc2Cl)NCC3)nc(N)n1 (stereo not shown) [C-1]
pIC50 [1]: > 6.22 | pIC50 [2]: > 6.00 | pIC50 [3]: > 6.00

Cc1cc(N2CCCOCC2c2cc(F)c(C)cc2Cl)nc(N)n1 (stereo not shown) [C-2]
pIC50 [1]: 5.70 to 6.22 | pIC50 [2]: 5.00 to 6.00 | pIC50 [3]: 5.00 to 6.00

Cc1cc(N2CCCOCC2c2cc(Cl)c(C)cc2Cl)nc(N)n1 (stereo not shown) [C-3]
pIC50 [1]: 5.70 to 6.22 | pIC50 [2]: 5.00 to 6.00 | pIC50 [3]: 5.00 to 6.00

Cc1cc(N2CCCOCC2c2cc(F)c(F)cc2Cl)nc(N)n1 (stereo not shown) [C-4]
pIC50 [1]: 5.70 to 6.22 | pIC50 [2]: 5.00 to 6.00 | pIC50 [3]: 5.00 to 6.00

Cc1cc(N2CCCOCC2c2cc3c(cc2Cl)OCC(=O)N3)nc(N)n1 (stereo not shown) [C-5]
pIC50 [1]: > 6.22 | pIC50 [2]: > 6.00 | pIC50 [3]: > 6.00

Cc1cc(N2CCCOCC2c2cc3c(cc2Cl)OCCO3)nc(N)n1 (stereo not shown) [C-6]
pIC50 [1]: 5.70 to 6.22 | pIC50 [2]: 5.00 to 6.00 | pIC50 [3]: > 6.00

Cc1cc(N2CCCOCC2c2cc(Cl)c(O)cc2Cl)nc(N)n1 (stereo not shown) [C-7]
pIC50 [1]: 5.70 to 6.22 | pIC50 [2]: 5.00 to 6.00 | pIC50 [3]: 5.00 to 6.00

Cc1cc(N2CCCOCC2c2ccc(CS(C)(=O)=O)cc2F)nc(N)n1 (stereo not shown) [C-11, 4-[3-(2-Fluoro-4-methanesulfonylmethyl-phenyl)-[1,4]oxazepan-4-yl]-6-methyl-pyrimidin-2-ylamine]
pIC50 [1]: 5.70 to 6.22 | pIC50 [2]: > 6.00 | pIC50 [3]: > 6.00

Cc1cc(N2CCCOCC2c2cc(CS(C)(=O)=O)ccc2Cl)nc(N)n1 (stereo not shown) [C-12, 4-[3-(2-Chloro-5-methanesulfonylmethyl-phenyl)-[1,4]oxazepan-4-yl]-6-methyl-pyrimidin-2-ylamine]
pIC50 [1]: 5.70 to 6.22 | pIC50 [2]: 5.00 to 6.00 | pIC50 [3]: > 6.00

Cc1cc(N2CCCOCC2c2cc3c(cc2Cl)OCCCO3)nc(N)n1 (stereo not shown) [C-13]
pIC50 [1]: > 6.22 | pIC50 [2]: 5.00 to 6.00 | pIC50 [3]: > 6.00

COc1cc(C2COCCCN2c2cc(C)nc(N)n2)c(Cl)cc1O (stereo not shown) [C-14]
pIC50 [1]: 5.70 to 6.22 | pIC50 [2]: 5.00 to 6.00 | pIC50 [3]: > 6.00

COc1cc(Cl)c(C2COCCCN2c2cc(C)nc(N)n2)cc1OC (stereo not shown) [C-15]
pIC50 [1]: 5.70 to 6.22 | pIC50 [2]: > 6.00 | pIC50 [3]: > 6.00

Cc1cc(N2CCCOCC2c2cc(C)c(N)cc2Cl)nc(N)n1 (stereo not shown) [C-16]
pIC50 [1]: > 6.22 | pIC50 [2]: > 6.00 | pIC50 [3]: > 6.00

Cc1cc(N2CCCOCC2c2cc(F)c(Cl)cc2Cl)nc(N)n1 (stereo not shown) [C-18]
pIC50 [1]: 5.30 to 5.70 | pIC50 [2]: 5.00 to 6.00 | pIC50 [3]: 5.00 to 6.00

COc1cc(Cl)c(C2COCCCN2c2cc(C)nc(N)n2)cc1Cl (stereo not shown) [C-19]
pIC50 [1]: 5.70 to 6.22 | pIC50 [2]: 5.00 to 6.00 | pIC50 [3]: > 6.00

Cc1cc(N2CCCOCC2c2cc3c(cc2Cl)n(C)c(=O)n3C)nc(N)n1 (stereo not shown) [C-20]
pIC50 [1]: > 6.22 | pIC50 [2]: > 6.00 | pIC50 [3]: > 6.00

CCNc1cc(Cl)c(C2COCCCN2c2cc(C)nc(N)n2)cc1C (stereo not shown) [C-21]
pIC50 [1]: > 6.22 | pIC50 [2]: > 6.00 | pIC50 [3]: > 6.00

Cc1cc(N2CCCOCC2c2cc(O)c(O)cc2Cl)nc(N)n1 (stereo not shown) [C-22]
pIC50 [2]: ≤ 4.60 | pIC50 [3]: ≤ 4.60

CCOc1cc(Cl)c(C2COCCCN2c2cc(C)nc(N)n2)cc1OC (stereo not shown) [C-23]
pIC50 [1]: > 6.22 | pIC50 [2]: > 6.00 | pIC50 [3]: > 6.00

COc1cc(C2COCCCN2c2cc(C)nc(N)n2)c(Cl)cc1OC(C)C (stereo not shown) [C-24]
pIC50 [1]: > 6.22 | pIC50 [2]: 5.00 to 6.00 | pIC50 [3]: > 6.00

Cc1cc(N2CCCOCC2c2cc(F)c(O)cc2Cl)nc(N)n1 (stereo not shown) [C-30]
pIC50 [1]: 5.70 to 6.22 | pIC50 [2]: 5.00 to 6.00 | pIC50 [3]: 5.00 to 6.00

Cc1cc(N2CCCOCC2c2cc(C(F)(F)F)c(N)cc2Cl)nc(N)n1 (stereo not shown) [C-31]
pIC50 [1]: > 6.22 | pIC50 [2]: 5.00 to 6.00 | pIC50 [3]: > 6.00

Cc1cc(N2CCCOCC2c2cc3c(cc2Cl)N(C)CC3)nc(N)n1 (stereo not shown) [C-32]
pIC50 [1]: > 6.22 | pIC50 [2]: > 6.00 | pIC50 [3]: > 6.00

Cc1cc(N2CCCOCC2c2cc(F)c(-c3cccnc3)cc2Cl)nc(N)n1 (stereo not shown) [C-33]
pIC50 [2]: 5.00 to 6.00 | pIC50 [3]: 5.00 to 6.00

Cc1cc(N2CCCOCC2c2cc(Cl)c(Cl)cc2Cl)nc(N)n1 (stereo not shown) [C-34]
pIC50 [1]: ≤ 5.30 | pIC50 [2]: 5.00 to 6.00 | pIC50 [3]: 5.00 to 6.00
